We go through one sequence from publication PMC9259545, “Impact of poly-arginine peptides R18D and R18 on alteplase and tenecteplase thrombolysis in vitro, and neuroprotective stability to proteolysis” (Journal of Thrombosis and Thrombolysis, 2022).

No end group written: not given here.

Test [1] relates to patients undergoing thrombectomy. Particulars: ESCAPE-NA-1 trial, subgroup analysis; cited from earlier work. The source says:
The cationic arginine-rich peptides (CARPs) poly-arginine-18 (R18; 18-mer of L-enantiomer arginine; net charge + 18), its D-enantiomer (R18D) and NA-1 (also known as nerinetide or TAT-NR2B9c; net charge + 7) represent emerging neuroprotective therapies for the acute treatment of ischaemic stroke, especially prior to thrombolysis and endovascular thrombectomy.

Test [2] deals with T1, TNK (Homo sapiens, UniProt P00750, H332A/K331A/N152Q/R333A/R334A/T138N).
T1 construct: purchased Boehringer Ingelheim 50 mg vial
T1 sequence (P00750 36-562 T138N/N152Q/K331A/H332A/R333A/R334A): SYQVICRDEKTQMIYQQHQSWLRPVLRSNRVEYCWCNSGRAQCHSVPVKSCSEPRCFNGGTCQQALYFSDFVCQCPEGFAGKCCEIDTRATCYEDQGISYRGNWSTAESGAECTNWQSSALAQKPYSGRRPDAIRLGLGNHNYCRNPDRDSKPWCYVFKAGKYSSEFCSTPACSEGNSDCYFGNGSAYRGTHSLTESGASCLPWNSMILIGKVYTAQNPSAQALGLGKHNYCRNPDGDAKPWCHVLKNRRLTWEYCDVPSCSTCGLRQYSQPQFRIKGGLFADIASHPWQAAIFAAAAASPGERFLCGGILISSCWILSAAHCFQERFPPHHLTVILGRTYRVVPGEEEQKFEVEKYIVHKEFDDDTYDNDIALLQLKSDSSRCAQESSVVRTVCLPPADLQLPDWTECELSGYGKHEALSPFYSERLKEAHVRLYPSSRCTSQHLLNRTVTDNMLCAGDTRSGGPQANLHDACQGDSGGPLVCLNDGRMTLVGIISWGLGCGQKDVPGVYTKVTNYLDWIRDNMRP
Put plainly: Halo clot thrombolysis assay, TNK thrombolysis of whole blood clots. The test is classed as biochemical. The conditions noted are these: concurrent study, 0.5-16 µM peptide, TNK 5 nM, 27.5% human plasma. The method, then: (§1) We utilised a high throughput 96-well plate thrombolysis assay (“halo clot assay”) based on the procedure developed by Bonnard et al.. To reduce assay components the halo thrombus formation procedure was modified by replacing the original thrombotic mixture consisting of recombinant tissue factor and synthetic phospholipids reconstituted in 30 mM calcium, with thrombin, and reducing the pro-thrombotic volume (i.e., thrombin) from 5 to 3 µL and blood volume from 25 to 12 µL. Another modification to simplify clot formation consisted of adding the thrombin (3 µL; 500 nM in saline) to one side of the well and 12 µL of blood to the opposite side of well, before using a heat stretched Pasteur pipette with sealed end to mix the two liquids together using 4 to 5 circular motions around the edge of the well (halo clot). The original methodology involved adding the 5 μL of the clotting mixture to the edge of the well, and then using a micropipette to slowly release the 25 μL of blood to the edge of the well while at the same time maintaining a circular motion. Plates were incubated in a humidified 37 °C incubator for 1 h before use in the thrombolysis assay.
(§2) The thrombolysis assay involved adding 30 µL of Tris buffer (50 mM Tris–HCl, 100 mM NaCl, pH 7.4) with or without peptide followed by 55 µL Tris buffer containing tPA or TNK (5 nM final concentration) and 50% human plasma (final plasma concentration during thrombolysis 27.5%). The final concentration of peptide during thrombolysis ranged from 0.25 to 16 µM (note: an intravenous dose of R18D at 350 nmol/kg, which is likely to be neuroprotective achieves a Cmax of 0.7–0.9 µM in healthy male and female rats; unpublished observation). […] Following the addition of tPA or TNK into the wells, clot lysis was monitored over a 1-h period at 37 °C using a plate reader (Cytation5, BioTek, USA) by measuring absorbance at 510 nm every 1 min immediately after orbital shaking (205 rpm for 5 s). Controls consisted of wells with no thrombin (100% clot lysis; L100%) and wells with no tPA or TNK (0% clot lysis; L0%). At the 1-h time point, the percentage of thrombolysis (%T) in tPA or TNK treated samples (LTX) was calculated by transforming absorbance values based on the formula: % T = (LTX) − (L0%)/(L100%) − (L0%) × 100. In addition, during the 1-h period of clot lysis lag time and maximal activity (also known as maximum velocity or Vmax) of the thrombolysis reaction were calculated. The lag time is defined as the time interval between the first absorbance reading (time = 0) and the line of maximum slope of the thrombolysis reaction. The maximal activity is calculated from the maximum slope over the time course of the assay and reflects the capacity of an enzyme to catalyse a reaction (i.e., thrombolysis), with higher values representing higher catalytic activity (i.e., tPA/TNK induced plasmin thrombolysis).
(§3) For each thrombolysis assay, replicates for control wells (L0% and L100%) and tPA or TNK only treated wells consisted of n = 4–8. Replicates for tPA or TNK and peptide treated wells consisted of n = 4. For data analysis and graphical representations of the results, data from three independent thrombolytic assays were pooled. Studies consisted of R18D, R18 and NA-1 examined at the 0.5, 1, 2, 4, 8 or 16 µM concentrations performed concurrently on the same 96-well plate, in respective order. In addition, since R18D is known to be resistant to plasmin degradation and appeared to have the most impact on tPA or TNK thrombolysis, a separate set of three independent assays were performed for this peptide alone at concentrations of 0.25, 0.5, 1, 2, 4, 8 or 16 µM. Furthermore, the second dose study with R18D provided the opportunity to include a lower concentration (0.25 µM) of the peptide and to provide comparative data when only one peptide was examined in the thrombolysis assay per 96-well plate as opposed to examining the three peptides concurrently on the same plate. […]

The test system of test [3] is tPA or TNK. The test is classed as biochemical, human. The protocol: as §1, §2
For each thrombolysis assay, replicates for control wells (L0% and L100%) and tPA or TNK only treated wells consisted of n = 4–8. Replicates for tPA or TNK and peptide treated wells consisted of n = 4. For data analysis and graphical representations of the results, data from three independent thrombolytic assays were pooled. Studies consisted of R18D, R18 and NA-1 examined at the 0.5, 1, 2, 4, 8 or 16 µM concentrations performed concurrently on the same 96-well plate, in respective order. […]

Test [4] deals with T2, tPA (Homo sapiens, UniProt P00750).
T2 construct: purchased Boehringer Ingelheim, Germany 10 mg vial
T2 sequence (P00750 36-562): as the sequence (P00750 36-562 T138N/N152Q/K331A/H332A/R333A/R334A) above, with N103T, Q117N, A296K, A297H, A298R, A299R counted along it
As to the kind of experiment: Halo clot thrombolysis assay, tPA thrombolysis of whole blood clots. The test is classed as biochemical. The conditions noted are these: tPA 5 nM, 27.5% human plasma; for Increase in tPA lag time / Increase in tPA thrombolysis maximal activity: concurrent study, 37 °C. The method, then: as §1, §2, §3

Test [5] deals with tPA or TNK. The conditions noted are these: cited from earlier work. From the text: Given the potential future application of the R18D, R18 and NA-1 peptides as ischaemic stroke neurotherapeutics, it is important to establish if they interfere with current and future standard of care treatments, namely alteplase (tPA; recombinant tissue plasminogen activator) and tenecteplase (TNK; a modified version of tPA) thrombolysis, which are routinely administered prior to thrombectomy. Similarly, it is also important to determine whether tPA or TNK may cause proteolytic degradation of the peptides directly or through the activation of plasminogen to plasmin, thereby reducing their pot ...

Test [6] relates to Rat primary cortical cultures. Set-up: method as in PMID 25669902. Particulars: cited from earlier work.
Procedure: To assess peptide proteolytic stability, R18 and R18D neuroprotective efficacy after incubation with tPA, TNK or trypsin was examined in the glutamic acid excitotoxicity model. Peptides were added to culture wells (96-well plate format) 5 min prior to glutamic acid exposure by removing media and adding 50 µL of media containing R18 or R18D at a 2 µM concentration. To induce excitotoxicity, 50 µL of Minimal Essential Media (Life Technologies)/2% B27 (MEM/B27) containing glutamic acid (200 µM: final concentration 100 µM; L-glutamic acid. L-glutamic acid was prepared as a 10,000 µM stock in water ...

In the case of “YGRKKRRQRRRKLSSIESDV [NA-1, reference compound]”, the “Outcome of patients who received NA-1 but not alteplase compared with patients who received both NA-1 and alteplase” value in test [1] was “significantly better functional outcomes, reduced mortality and reduced infarct volume”. Also, the “Effect on TNK lag time vs TNK control” value in test [2] is given as “did not significantly increase TNK lag time”. The “Effect on TNK thrombolysis maximal activity vs TNK control” value in test [2] is on record as “did not significantly impact TNK thrombolysis maximal activity”. Moreover, in test [2] (37 °C, 1 h), the “Effect on percentage TNK thrombolysis at 1 h vs TNK control” value is reported as “did not significantly inhibit TNK thrombolysis”. In addition, the “Increase in lag time (time to the commencement of thrombolysis)” value in test [3] (range over peptide concentrations 0.25-16 µM and both thrombolytics, 1-h assay) lay in the range of 0 to 7.16 min. The “Effect on maximal activity of the thrombolysis reaction” value in test [3] (summary in abstract) is reported as “appeared to increase the maximal activity”. Moreover, the “Increase in tPA lag time” value in test [4] (peptide 1 µM) was 5.4 min; in test [4] (peptide 2 µM), 7.16 min. Also, the “Increase in tPA thrombolysis maximal activity” value in test [4] (peptide 2 µM) amounted to 40.68%; in test [4] (peptide 4 µM), 45.1%; in test [4] (peptide 8 µM) it was 58.65%; in test [4] (peptide 16 µM), 45.65%. Also, the “Effect on percentage tPA thrombolysis at 1 h vs tPA control” value in test [4] (three peptides concurrently on the same plate, 0.5-16 µM peptide, Tris pH 7.4, 37 °C, 1 h, absorbance 510 nm, three independent assays pooled, n = 4, Dunnett's test) was “did not significantly inhibit thrombolysis”. Besides, the “Interference with the thrombolytic activity of tPA or TNK” value in test [5] is listed as “does not interfere”. In addition, in test [6], the “Neuroprotection in the glutamic acid excitotoxicity model” value was “no to little neuroprotection”.
